# Patent publication US8445492B2, “Method for inhibiting growth of cancer cells and cell telomere and diseases of cell proliferation by using heteroannelated anthraquinone derivative compounds” (National Defense Medical Center, priority 2008, dated 2013)
# Like-named read-outs stand apart in the source and are kept apart here.
# Tests used:
# Format in all cases: cell-based
# MDA-MB-435 = assay: in vitro test at 1.0×10^−5 M, Breast cancer cell; conditions: 1.0×10^−5 molal concentration (M)
# SN12C [1] = assay: in vitro test at 1.0×10^−5 M, Kidney cancer cell; conditions: 1.0×10^−5 molal concentration (M)
# SF-539 = assay: in vitro test at 1.0×10^−5 M, CNS cancer cell
# U251 = assay: in vitro test at 1.0×10^−5 M, CNS cancer cell
# UACC-62 = assay: in vitro test at 1.0×10^−5 M, Skin cancer cell; conditions: 1.0×10^−5 molal concentration (M)
# MOLT-4 = assay: in vitro test at 1.0×10^−5 M, Blood cancer cell; conditions: 1.0×10^−5 molal concentration (M)
# MDA-MB-468 = assay: in vitro test at 1.0×10^−5 M, Breast cancer cell; conditions: 1.0×10^−5 molal concentration (M)
# HCC-2998 = assay: in vitro test at 1.0×10^−5 M, Colorectal cancer cell; conditions: 1.0×10^−5 molal concentration (M)
# UACC-257 = assay: in vitro test at 1.0×10^−5 M, Skin cancer cell; conditions: 1.0×10^−5 molal concentration (M)
# MCF7 = assay: in vitro test at 1.0×10^−5 M, Breast cancer cell; conditions: 1.0×10^−5 molal concentration (M)
# OVCAR-4 = assay: in vitro test at 1.0×10^−5 M, Ovary cancer cell; conditions: 1.0×10^−5 molal concentration (M)
# [2] = system: different cancer cell lines; assay: in vitro test at 1.0×10^−5 M, summary over the cell lines; set-up: unit not given here; conditions: 1.0×10^−5 molal concentration (M)
# LOX IMV1 = assay: in vitro test at 1.0×10^−5 M, Skin cancer cell; conditions: 1.0×10^−5 molal concentration (M)
# HOP-92 = assay: in vitro test at 1.0×10^−5 M, Non-small cell lung cancer cell; conditions: 1.0×10^−5 molal concentration (M)
# MALME-3M = assay: in vitro test at 1.0×10^−5 M, Skin cancer cell; conditions: 1.0×10^−5 molal concentration (M)
# UO-31 [3] = assay: in vitro test at 1.0×10^−5 M, Kidney cancer cell; conditions: 1.0×10^−5 molal concentration (M)
# SK-MEL-2 = assay: in vitro test at 1.0×10^−5 M, Skin cancer cell; conditions: 1.0×10^−5 molal concentration (M)
# T-47D = assay: in vitro test at 1.0×10^−5 M, Breast cancer cell; conditions: 1.0×10^−5 molal concentration (M)
# ACHN [4] = assay: in vitro test at 1.0×10^−5 M, Kidney cancer cell; conditions: 1.0×10^−5 molal concentration (M)
# IGROV1 = assay: in vitro test at 1.0×10^−5 M, Ovary cancer cell; conditions: 1.0×10^−5 molal concentration (M)
# RXF 393 = assay: NCI DTP in-vitro dose response, Renal Cancer
# ACHN [5] = assay: NCI DTP in-vitro dose response, Renal Cancer; conditions: ACHN
# 786-0 = assay: NCI DTP in-vitro dose response, Renal Cancer
# A498 = assay: NCI DTP in-vitro dose response, Renal Cancer
# UO-31 [6] = assay: NCI DTP in-vitro dose response, Renal Cancer
# CAKI-1 = assay: NCI DTP in-vitro dose response, Renal Cancer
# SN12C [7] = assay: NCI DTP in-vitro dose response, Renal Cancer; conditions: SN12C
# TK-10 = assay: NCI DTP in-vitro dose response, Renal Cancer
# [8] = 1.0×10^−5 molal concentration (M)
# [9] = read-out: LC50 (the source's name)
smiles,measurement,setting,value
"CC1(C)Nc2ccc3c(c2N1)C(=O)c1ccccc1C3=O [No. 20, 2,2-Dimethyl-2,3-dihydro-1H-anthra[1,2-d]imidazole-6,11-dione]",inhibition effect on cancer cell line (Table 2 value),MDA-MB-435,124.56
same,inhibition effect on cancer cell line (Table 2 value),SN12C [1],91.98
same,inhibition effect on cancer cell line (Table 2 value),SF-539,93.56
same,inhibition effect on cancer cell line (Table 2 value),U251,87.84
same,inhibition effect on cancer cell line (Table 2 value),UACC-62,67.58
same,inhibition effect on cancer cell line (Table 2 value),MOLT-4,116.41
same,inhibition effect on cancer cell line (Table 2 value),MDA-MB-468,77.25
same,inhibition effect on cancer cell line (Table 2 value),HCC-2998,136.96
same,inhibition effect on cancer cell line (Table 2 value),UACC-257,118.22
same,inhibition effect on cancer cell line (Table 2 value),MCF7,83.58
same,inhibition effect on cancer cell line (Table 2 value),OVCAR-4,80.14
same,Mean,[2],80.41
same,inhibition effect on cancer cell line (Table 2 value),LOX IMV1,61.88
same,inhibition effect on cancer cell line (Table 2 value),HOP-92,5.10
same,inhibition effect on cancer cell line (Table 2 value),MALME-3M,155.47
same,inhibition effect on cancer cell line (Table 2 value),UO-31 [3],30.65
same,inhibition effect on cancer cell line (Table 2 value),SK-MEL-2,8.04
same,inhibition effect on cancer cell line (Table 2 value),T-47D,82.96
same,inhibition effect on cancer cell line (Table 2 value),ACHN [4],50.17
same,inhibition effect on cancer cell line (Table 2 value),IGROV1,−2.80
"O=C1c2ccccc2C(=O)c2c1ccc1nccnc21 [No. 25, Naphthol-[2,3-f]quinoxaline-7,12-dione]",inhibition effect on cancer cell line (Table 2 value),MDA-MB-435,102.03
same,inhibition effect on cancer cell line (Table 2 value),SN12C [1],64.65
same,inhibition effect on cancer cell line (Table 2 value),SF-539; [8],40.72
same,inhibition effect on cancer cell line (Table 2 value),U251; [8],63.47
same,inhibition effect on cancer cell line (Table 2 value),UACC-62,90.47
same,inhibition effect on cancer cell line (Table 2 value),MOLT-4,22.91
same,inhibition effect on cancer cell line (Table 2 value),MDA-MB-468,75.28
same,inhibition effect on cancer cell line (Table 2 value),HCC-2998,−7.15
same,inhibition effect on cancer cell line (Table 2 value),UACC-257,91.06
same,inhibition effect on cancer cell line (Table 2 value),MCF7,39.68
same,inhibition effect on cancer cell line (Table 2 value),OVCAR-4,94.22
same,Mean,[2],69.36
same,inhibition effect on cancer cell line (Table 2 value),LOX IMV1,44.18
same,inhibition effect on cancer cell line (Table 2 value),MALME-3M,180.88
same,inhibition effect on cancer cell line (Table 2 value),UO-31 [3],51.45
same,inhibition effect on cancer cell line (Table 2 value),SK-MEL-2,6.66
same,inhibition effect on cancer cell line (Table 2 value),T-47D,85.19
same,inhibition effect on cancer cell line (Table 2 value),ACHN [4],46.52
same,inhibition effect on cancer cell line (Table 2 value),IGROV1,3.44
"O=C1c2ccccc2C(=O)c2c1ccc1[nH]c(=O)c(=O)[nH]c21 [No. 26, Naphtho[2,3-f]quinoxaline-2,3,7,12 (1H,4H)-tetraone]",inhibition effect on cancer cell line (Table 2 value),MDA-MB-435,144.42
same,inhibition effect on cancer cell line (Table 2 value),SN12C [1],94.07
same,inhibition effect on cancer cell line (Table 2 value),SF-539; [8],101.16
same,inhibition effect on cancer cell line (Table 2 value),U251; [8],95.92
same,inhibition effect on cancer cell line (Table 2 value),UACC-62,95.25
same,inhibition effect on cancer cell line (Table 2 value),MOLT-4,121.52
same,inhibition effect on cancer cell line (Table 2 value),MDA-MB-468,38.35
same,inhibition effect on cancer cell line (Table 2 value),HCC-2998,77.59
same,inhibition effect on cancer cell line (Table 2 value),UACC-257,118.21
same,inhibition effect on cancer cell line (Table 2 value),MCF7,85.17
same,inhibition effect on cancer cell line (Table 2 value),OVCAR-4,103.31
same,Mean,[2],100.83
same,inhibition effect on cancer cell line (Table 2 value),LOX IMV1,96.94
same,inhibition effect on cancer cell line (Table 2 value),HOP-92,−15.08
same,inhibition effect on cancer cell line (Table 2 value),MALME-3M,149.83
same,inhibition effect on cancer cell line (Table 2 value),UO-31 [3],61.43
same,inhibition effect on cancer cell line (Table 2 value),SK-MEL-2,21.96
same,inhibition effect on cancer cell line (Table 2 value),T-47D,87.10
same,inhibition effect on cancer cell line (Table 2 value),ACHN [4],81.33
same,inhibition effect on cancer cell line (Table 2 value),IGROV1,13.36
O=C1c2ccccc2C(=O)c2c1ccc1nccnc21 [TABLE 5-7],GI50,RXF 393; RXF 393,6.43 µM
same,TGI,RXF 393; RXF 393,>1.00E−4
same,Percent Growth,"RXF 393; RXF 393, Log10 Concentration −4.0",7%
same,Percent Growth,"RXF 393; RXF 393, Log10 Concentration −5.0",43%
same,Percent Growth,"RXF 393; RXF 393, Log10 Concentration −6.0",81%
same,Percent Growth,"RXF 393; RXF 393, Log10 Concentration −7.0",93%
same,Percent Growth,"RXF 393; RXF 393, Log10 Concentration −8.0",97%
same,CC50,"RXF 393; RXF 393, read-out: LC50 (the source's name)",> 100 µM
same,TGI,ACHN [5],>1.00E−4
same,Percent Growth,ACHN [5]; Log10 Concentration −4.0,2%
same,Percent Growth,ACHN [5]; Log10 Concentration −5.0,31%
same,Percent Growth,ACHN [5]; Log10 Concentration −6.0,77%
same,Percent Growth,ACHN [5]; Log10 Concentration −7.0,87%
same,Percent Growth,ACHN [5]; Log10 Concentration −8.0,98%
same,GI50,ACHN [5]; read-out: GI50,3.85 µM
same,CC50,ACHN [5]; [9],> 100 µM
same,TGI,786-0; 786-0,>1.00E−4
same,Percent Growth,"786-0; 786-0, Log10 Concentration −4.0",15%
same,Percent Growth,"786-0; 786-0, Log10 Concentration −5.0",47%
same,Percent Growth,"786-0; 786-0, Log10 Concentration −6.0",104%
same,Percent Growth,"786-0; 786-0, Log10 Concentration −7.0",101%
same,Percent Growth,"786-0; 786-0, Log10 Concentration −8.0",98%
same,GI50,"786-0; 786-0, read-out: GI50",8.87 µM
same,CC50,"786-0; 786-0, read-out: LC50 (the source's name)",> 100 µM
same,TGI,A498; A498,5.03E−5
same,Percent Growth,"A498; A498, Log10 Concentration −4.0",−21%
same,Percent Growth,"A498; A498, Log10 Concentration −5.0",49%
same,Percent Growth,"A498; A498, Log10 Concentration −6.0",89%
same,Percent Growth,"A498; A498, Log10 Concentration −7.0",85%
same,Percent Growth,"A498; A498, Log10 Concentration −8.0",93%
same,GI50,"A498; A498, read-out: GI50",9.31 µM
same,CC50,"A498; A498, read-out: LC50 (the source's name)",> 100 µM
same,TGI,UO-31 [6]; UO-31,8.59E−5
same,Percent Growth,"UO-31 [6]; UO-31, Log10 Concentration −4.0",−2%
same,Percent Growth,"UO-31 [6]; UO-31, Log10 Concentration −5.0",25%
same,Percent Growth,"UO-31 [6]; UO-31, Log10 Concentration −6.0",73%
same,Percent Growth,"UO-31 [6]; UO-31, Log10 Concentration −7.0",73%
same,Percent Growth,"UO-31 [6]; UO-31, Log10 Concentration −8.0",80%
same,GI50,"UO-31 [6]; UO-31, read-out: GI50",3.02 µM
same,CC50,"UO-31 [6]; UO-31, read-out: LC50 (the source's name)",> 100 µM
same,TGI,CAKI-1; CAKI-1,>1.00E−4
same,Percent Growth,"CAKI-1; CAKI-1, Log10 Concentration −4.0",4%
same,Percent Growth,"CAKI-1; CAKI-1, Log10 Concentration −5.0",39%
same,Percent Growth,"CAKI-1; CAKI-1, Log10 Concentration −6.0",87%
same,Percent Growth,"CAKI-1; CAKI-1, Log10 Concentration −7.0",89%
same,Percent Growth,"CAKI-1; CAKI-1, Log10 Concentration −8.0",94%
same,GI50,"CAKI-1; CAKI-1, read-out: GI50",5.83 µM
same,CC50,"CAKI-1; CAKI-1, read-out: LC50 (the source's name)",> 100 µM
same,TGI,SN12C [7],9.27E−5
same,Percent Growth,SN12C [7]; Log10 Concentration −4.0,−2%
same,Percent Growth,SN12C [7]; Log10 Concentration −5.0,57%
same,Percent Growth,SN12C [7]; Log10 Concentration −6.0,78%
same,Percent Growth,SN12C [7]; Log10 Concentration −7.0,71%
same,Percent Growth,SN12C [7]; Log10 Concentration −8.0,87%
same,GI50,SN12C [7]; read-out: GI50,13.2 µM
same,CC50,SN12C [7]; [9],> 100 µM
same,TGI,TK-10; TK-10,>1.00E−4
same,Percent Growth,"TK-10; TK-10, Log10 Concentration −4.0",2%
same,Percent Growth,"TK-10; TK-10, Log10 Concentration −5.0",36%
same,Percent Growth,"TK-10; TK-10, Log10 Concentration −6.0",83%
same,Percent Growth,"TK-10; TK-10, Log10 Concentration −7.0",85%
same,Percent Growth,"TK-10; TK-10, Log10 Concentration −8.0",102%
same,GI50,"TK-10; TK-10, read-out: GI50",5 µM
same,CC50,"TK-10; TK-10, read-out: LC50 (the source's name)",> 100 µM
